Experimental findings from ChEMBL document CHEMBL4184305, “Inhibition of histone lysine methyltransferases G9a and GLP by ejection of structural Zn(II)” (Bioorg Med Chem Lett, 2018) are described below.

The target in test [1] is T1, Histone-lysine N-methyltransferase EHMT2 (Homo sapiens) (UniProt Q96KQ7).
T1 sequence (whole entry): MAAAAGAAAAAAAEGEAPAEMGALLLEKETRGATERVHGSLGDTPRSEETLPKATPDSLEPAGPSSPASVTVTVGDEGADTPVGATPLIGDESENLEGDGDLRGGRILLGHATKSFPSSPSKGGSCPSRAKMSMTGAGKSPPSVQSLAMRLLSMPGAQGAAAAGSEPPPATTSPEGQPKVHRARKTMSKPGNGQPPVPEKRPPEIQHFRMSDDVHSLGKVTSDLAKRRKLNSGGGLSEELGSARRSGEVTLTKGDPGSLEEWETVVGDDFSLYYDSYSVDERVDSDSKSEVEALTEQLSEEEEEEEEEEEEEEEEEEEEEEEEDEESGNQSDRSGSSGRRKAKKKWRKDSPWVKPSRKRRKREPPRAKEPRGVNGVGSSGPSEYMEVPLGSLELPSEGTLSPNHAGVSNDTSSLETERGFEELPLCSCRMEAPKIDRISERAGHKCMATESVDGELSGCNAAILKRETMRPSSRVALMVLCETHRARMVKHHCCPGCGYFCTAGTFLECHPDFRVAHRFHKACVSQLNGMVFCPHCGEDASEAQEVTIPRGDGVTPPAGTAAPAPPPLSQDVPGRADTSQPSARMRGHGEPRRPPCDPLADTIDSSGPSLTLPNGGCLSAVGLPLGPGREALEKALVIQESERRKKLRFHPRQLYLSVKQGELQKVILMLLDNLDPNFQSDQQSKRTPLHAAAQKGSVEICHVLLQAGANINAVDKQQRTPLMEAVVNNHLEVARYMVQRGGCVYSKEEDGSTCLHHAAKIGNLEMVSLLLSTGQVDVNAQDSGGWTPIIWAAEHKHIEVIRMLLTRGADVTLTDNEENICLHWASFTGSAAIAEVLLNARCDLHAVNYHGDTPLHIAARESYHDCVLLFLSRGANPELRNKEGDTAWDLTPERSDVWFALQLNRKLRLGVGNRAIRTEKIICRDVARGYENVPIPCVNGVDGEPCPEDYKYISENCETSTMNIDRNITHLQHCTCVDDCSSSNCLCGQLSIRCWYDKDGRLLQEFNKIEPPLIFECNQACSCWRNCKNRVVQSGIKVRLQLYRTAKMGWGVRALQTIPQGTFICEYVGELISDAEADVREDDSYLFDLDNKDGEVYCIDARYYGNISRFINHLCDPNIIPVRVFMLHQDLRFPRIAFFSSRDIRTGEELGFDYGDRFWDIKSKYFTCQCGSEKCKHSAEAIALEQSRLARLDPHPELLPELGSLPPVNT
Put plainly: Inhibition of wild type recombinant human histone lysine methyltransferase G9a (913 to 1193 residues) expressed in Escherichia coli Rosetta BL21 DE3 PlysS at 10 uM using ARTKQTARKSTGGKA as substrate preincubated for 5 mins followed by substrate/SAM addition measured after 60 mins by MALDI-TOF MS analysis.

Test [2] concerns the target T1, Histone-lysine N-methyltransferase EHMT2 (Homo sapiens). Briefly: Inhibition of wild type recombinant human histone lysine methyltransferase G9a (913 to 1193 residues) expressed in Escherichia coli Rosetta BL21 DE3 PlysS at 100 uM using ARTKQTARKSTGGKA as substrate preincubated for 5 mins followed by substrate/SAM addition measured after 60 mins by MALDI-TOF MS analysis.

The target in test [3] is T2, Histone-lysine N-methyltransferase EHMT1 (Homo sapiens) (UniProt Q9H9B1).
T2 sequence (whole entry): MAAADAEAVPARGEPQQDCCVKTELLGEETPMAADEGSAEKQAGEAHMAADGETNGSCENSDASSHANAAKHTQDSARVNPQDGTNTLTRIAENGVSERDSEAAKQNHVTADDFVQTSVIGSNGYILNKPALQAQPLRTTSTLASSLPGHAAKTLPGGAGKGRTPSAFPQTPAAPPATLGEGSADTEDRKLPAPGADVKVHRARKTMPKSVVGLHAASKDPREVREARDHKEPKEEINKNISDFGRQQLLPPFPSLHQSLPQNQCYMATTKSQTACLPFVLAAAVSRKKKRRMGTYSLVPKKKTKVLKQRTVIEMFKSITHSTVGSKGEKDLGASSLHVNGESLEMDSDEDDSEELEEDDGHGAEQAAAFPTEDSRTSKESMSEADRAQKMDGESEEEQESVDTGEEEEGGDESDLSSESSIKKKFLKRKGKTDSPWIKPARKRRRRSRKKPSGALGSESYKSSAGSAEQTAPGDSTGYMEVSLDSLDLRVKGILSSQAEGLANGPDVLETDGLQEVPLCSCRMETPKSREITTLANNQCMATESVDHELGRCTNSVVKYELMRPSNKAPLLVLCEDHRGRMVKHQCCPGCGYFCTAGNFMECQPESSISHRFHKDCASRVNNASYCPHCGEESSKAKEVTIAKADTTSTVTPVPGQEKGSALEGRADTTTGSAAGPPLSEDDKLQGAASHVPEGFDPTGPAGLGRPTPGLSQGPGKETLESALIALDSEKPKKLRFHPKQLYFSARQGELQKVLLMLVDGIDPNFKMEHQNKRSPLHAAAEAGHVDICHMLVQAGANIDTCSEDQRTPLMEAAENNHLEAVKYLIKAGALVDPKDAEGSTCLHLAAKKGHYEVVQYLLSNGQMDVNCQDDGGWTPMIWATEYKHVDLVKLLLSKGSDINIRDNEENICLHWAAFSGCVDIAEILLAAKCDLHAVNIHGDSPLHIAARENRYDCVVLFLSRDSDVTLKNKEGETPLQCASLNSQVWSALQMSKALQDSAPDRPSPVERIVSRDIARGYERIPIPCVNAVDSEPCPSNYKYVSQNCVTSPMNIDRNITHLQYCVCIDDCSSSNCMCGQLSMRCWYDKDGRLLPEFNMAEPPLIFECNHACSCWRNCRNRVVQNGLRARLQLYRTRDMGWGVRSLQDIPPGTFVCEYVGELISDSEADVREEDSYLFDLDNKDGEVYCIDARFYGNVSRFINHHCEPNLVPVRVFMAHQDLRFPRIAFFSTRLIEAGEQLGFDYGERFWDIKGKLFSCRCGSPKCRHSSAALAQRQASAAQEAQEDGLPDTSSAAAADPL
Briefly: Inhibition of wild type recombinant human histone lysine methyltransferase GLP (951 to 1235 residues) expressed in Escherichia coli Rosetta BL21 DE3 PlysS at 10 uM using ARTKQTARKSTGGKA as substrate preincubated for 5 mins followed by substrate/SAM addition measured after 60 mins by MALDI-TOF MS analysis.

Test [4] deals with T2, Histone-lysine N-methyltransferase EHMT1 (Homo sapiens). Briefly: Inhibition of wild type recombinant human histone lysine methyltransferase GLP (951 to 1235 residues) expressed in Escherichia coli Rosetta BL21 DE3 PlysS at 100 uM using ARTKQTARKSTGGKA as substrate preincubated for 5 mins followed by substrate/SAM addition measured after 60 mins by MALDI-TOF MS analysis.
Test [5] deals with T3, Histone-lysine N-methyltransferase EHMT2 (Homo sapiens, UniProt Q96KQ7).
T3 sequence (Q96KQ7 whole entry): T1 sequence (whole entry)
Put plainly: Inhibition of wild type recombinant human histone lysine methyltransferase G9a (913 to 1193 residues) expressed in Escherichia coli Rosetta BL21 DE3 PlysS using ARTKQTARKSTGGKA as substrate preincubated for 5 mins followed by substrate/SAM addition measured after 60 mins by MALDI-TOF MS analysis.

For test [6], the target named is T4, Histone-lysine N-methyltransferase EHMT1 (Homo sapiens, UniProt Q9H9B1).
T4 sequence (Q9H9B1 whole entry): T2 sequence (whole entry)
Put plainly: Inhibition of wild type recombinant human histone lysine methyltransferase GLP (951 to 1235 residues) expressed in Escherichia coli Rosetta BL21 DE3 PlysS using ARTKQTARKSTGGKA as substrate preincubated for 5 mins followed by substrate/SAM addition measured after 60 mins by MALDI-TOF MS analysis.

Test [7] concerns the target T1, Histone-lysine N-methyltransferase EHMT2 (Homo sapiens). Put plainly: Inhibition of wild type recombinant human histone lysine methyltransferase G9a (913 to 1193 residues) expressed in Escherichia coli Rosetta BL21 DE3 PlysS assessed as zinc ions ejection from Cys4-Zn finger at 100 uM by FluoZin-3 based fluorescence assay.
In test [8] the target is T2, Histone-lysine N-methyltransferase EHMT1 (Homo sapiens). Put plainly: Inhibition of wild type recombinant human histone lysine methyltransferase GLP (951 to 1235 residues) expressed in Escherichia coli Rosetta BL21 DE3 PlysS assessed as zinc ions ejection from Cys4-Zn finger at 100 uM by FluoZin-3 based fluorescence assay.

Where a name gives a salt, the structure may show the parent alone. Calls of active or inactive are those of the source. The rule behind the calls is not given here.

The term inhibition denotes the change of the read-out against control, counted positive when it falls. A word on the IC50: it is the midpoint of a concentration-inhibition curve. With `c1ccc(SSc2ccccn2)nc1`, the inhibition result in test [1] and in test [3] was “inactive” throughout. Moreover, the inhibition in test [2] and in test [4] was greater than 50% in each case. Besides, the figures for the IC50 in test [5] and in test [6] were 0.65 µM and 2.7 µM, respectively. Moreover, the inhibition entry in test [7] and in test [8] was “Active” in each case.

In the case of `O=C1c2ccccc2C(=O)C1(O)O`, the inhibition result in test [1] and in test [3] was “inactive” in each case. Also, the inhibition in test [4] was found to be 40%. Also, the values for the IC50 in test [5] and in test [6] were 54 µM and greater than 100 µM, respectively. Moreover, the inhibition result in test [7] and in test [8] was “Active” each time.

As for `c1ccc([Se][Se]c2ccccc2)cc1`, the inhibition entry in test [1] and in test [3] was “inactive” throughout. Besides, the inhibition in test [2] and in test [4] was greater than 50% in each case. Further, the values for the IC50 in test [5] and in test [6] were 0.55 µM and 0.86 µM, respectively. The inhibition result in test [7] and in test [8] was “Active” each time.

Turning to `Cl[Se]c1ccccc1`, the inhibition entry in test [1] and in test [3] was “inactive” each time. Further, the inhibition in test [2] and in test [4] was greater than 50% each time. Further, the IC50 in test [5] is 1.2 µM; in test [6], 1.1 µM. Further, the inhibition result in test [7] and in test [8] was “Active” in each case.

Take `Br[Se]c1ccccc1`: the inhibition entry in test [1] and in test [3] was “inactive” in each case. Moreover, the inhibition in test [2] and in test [4] was greater than 50% each time. The values for the IC50 in test [5] and in test [6] were 0.79 µM and 1.5 µM, respectively. The inhibition entry in test [7] and in test [8] was “Active” each time.

For the compound `O=C1c2ccccc2C(=O)N1[Se]c1ccccc1`, the inhibition result in test [1] and in test [3] was “inactive” in each case. In addition, the inhibition in test [2] and in test [4] was greater than 50% each time. The IC50 in test [5] came out at 0.45 µM; in test [6], 1 µM. Moreover, the inhibition result in test [7] and in test [8] was “Active” each time.

As to `COc1cc2c(NC3CCN(C(C)C)CC3)nc(C3CCCCC3)nc2cc1OCCCN1CCCC1`, the inhibition entry in test [7] and in test [8] was “Active” throughout.

In the case of `C[S+](C)[O-]`, the inhibition result in test [7] and in test [8] was “Active” throughout.

With `O=C1c2ccccc2C(=O)c2ccccc21` [ANTHRAQUINONE], the inhibition entry in test [1] and in test [3] was “inactive” in each case. Moreover, the inhibition in test [2] and in test [4] was 20% in each case. The IC50 in test [5] and in test [6] was greater than 100 µM in each case. Moreover, the inhibition result in test [7] and in test [8] was “Active” in each case.

For `O=[Se](O)c1ccccc1` [BENZENE SELENOIC ACID], the inhibition entry in test [1] and in test [3] was “inactive” in each case. Besides, the inhibition in test [2] and in test [4] was greater than 50% in each case. For the same compound, the 50% inhibitory concentration (IC50) amounted to 4.4 µM in test [5] and 4.9 µM in test [6]. Also, the inhibition result in test [7] and in test [8] was “Active” in each case.

As for `NCCSSCCN` [CYSTAMINE DIHYDROCHLORIDE], the inhibition entry in test [1] and in test [3] was “inactive” each time. Also, the IC50 in test [5] was 15 µM; in test [6], greater than 100 µM. Further, the inhibition result in test [7] and in test [8] was “Active” throughout.

As to `NCCS` [CYSTEAMINE], the inhibition entry in test [1] and in test [3] was “inactive” throughout. Besides, the IC50 in test [5] and in test [6] was greater than 100 µM throughout. The inhibition entry in test [7] and in test [8] was “Active” throughout.

For the compound `CCN(CC)C(=S)S` [DITIOCARB SODIUM], the inhibition entry in test [1] and in test [3] was “inactive” each time. Besides, the inhibition in test [2] and in test [4] was greater than 50% throughout. Further, the IC50 worked out at 9.2 µM in test [5] and 81 µM in test [6]. In addition, the inhibition entry in test [7] and in test [8] was “Active” in each case.

For the compound `N[C@@H](CCC(=O)N[C@@H](CS)C(=O)NCC(=O)O)C(=O)O` [GLUTATHIONE], the inhibition result in test [1] and in test [3] was “inactive” throughout. Moreover, the IC50 in test [5] and in test [6] was greater than 100 µM throughout. The inhibition entry in test [7] and in test [8] was “Active” each time.
